Consider 30 compounds from publication PMC6008492, “Structure activity relationship studies on rhodanines and derived enethiol inhibitors of metallo-β-lactamases” (Bioorganic & Medicinal Chemistry, 2018).

Experiment [1] has as its target SPM-1 (Pseudomonas aeruginosa, UniProt Q8G9Q0). As to the kind of experiment: SPM-1 inhibition, fluorogenic cephalosporin (FC5) hydrolysis. The class given is biochemical. The following applies: enethiols 6 assayed as sodium salts; 10 min incubation; read-out: IC50 SPM-1 (converted). How it is done:
(§1) Inhibition analyses against bacterial MBLs and SBLs were performed as described previously.[22], [24], [26] Residual enzyme activities were determined for a range of inhibitor concentrations. Non-linear regression fitting of IC50 curves was carried out using a three-parameter dose–response curve in GraphPad Prism. Errors in IC50 values are expressed as: σ(logIC50)/logIC50×IC50
(§2) We first screened the inhibitors against a representative set of presently clinically important and other MBLs[22], comprising both Class B1 enzymes (NDM-1, New Delhi MBL-1; VIM-2, Verona integron–encoded MBL-2; BcII, Bacillus cereus II MBL; SPM-1, São Paulo MBL-1; IMP-1, imipenemase MBL-1) and the Class B2 MBL CphA (carbapenem hydrolysing MBL from Aeromonas hydrophila).[22] The latter MBL (CphA) only utilises one active site Zn(II) ion in catalysis, whilst the others normally use two Zn(II) ions.
Figure S5: IC50 curves for SPM-1 inhibition time courses. Residual activities were calculated from the
(§3) initial rate of FC5 hydrolysis after incubation of the enzyme with the inhibitor for 10 minutes. […]

Experiment [2] concerns the target T1, IMP-1 (Serratia marcescens, UniProt P52699).
T1 construct: made in house
As to the kind of experiment: IMP-1 inhibition, fluorogenic cephalosporin (FC5) hydrolysis. The class given is biochemical. Particulars: enethiols 6 assayed as sodium salts; 10 min incubation; read-out: IC50 IMP-1 (converted). How it is done:
as §1, §2
Figure S3: IC50 curves for IMP-1 inhibition time courses. Residual activities were calculated from the
initial rate of FC5 hydrolysis after incubation of the enzyme with the inhibitor for 10 minutes.

Experiment [3] deals with T2, BcII (Bacillus cereus, UniProt P04190).
T2 construct: made in house
T2 sequence (P04190 31-257): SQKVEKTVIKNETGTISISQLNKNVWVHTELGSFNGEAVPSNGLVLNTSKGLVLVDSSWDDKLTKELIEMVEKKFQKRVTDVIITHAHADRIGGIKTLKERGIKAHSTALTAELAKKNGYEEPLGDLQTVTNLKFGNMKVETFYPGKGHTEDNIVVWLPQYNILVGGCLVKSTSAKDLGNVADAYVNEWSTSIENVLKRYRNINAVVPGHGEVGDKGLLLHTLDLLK
As to the kind of experiment: biochemical. The following applies: enethiols 6 assayed as sodium salts; 10 min incubation; read-out: IC50 BcII (converted). How it is done:
as §1, §2
Figure S2: IC50 curves for BcII inhibition time courses. Residual activities were calculated from the initial
rate of FC5 hydrolysis after incubation of the enzyme with the inhibitor for 10 minutes. […]

In experiment [4] the target is T3, VIM-2 (Escherichia coli, UniProt Q5U7L7).
T3 construct: made in house
In words: biochemical. The following applies: enethiols 6 assayed as sodium salts; 10 min incubation; read-out: IC50 VIM-2 (converted). How it is done:
as §1
as §2, with “ions. We also screened the inhibitors against a representative panel of SBLs from different classes (TEM-1, Temoneira β-lactamase-1, class A; CTX-M-15, cefotaxime hydrolysing β-lactamase from Munich 15, class A, extended spectrum β-lactamase (ESBL); AmpC E. coli, class C, and OXA-10, oxacillinase-10, class D).” for “ions.”
Figure S6: IC50 curves for VIM-2 inhibition time courses. Residual activities were calculated from the
as §3

The target in experiment [5] is T4, NDM-1 (Klebsiella pneumoniae, UniProt C7C422).
T4 construct: made in house
T4 sequence (C7C422 29-270, looked up, species assumed): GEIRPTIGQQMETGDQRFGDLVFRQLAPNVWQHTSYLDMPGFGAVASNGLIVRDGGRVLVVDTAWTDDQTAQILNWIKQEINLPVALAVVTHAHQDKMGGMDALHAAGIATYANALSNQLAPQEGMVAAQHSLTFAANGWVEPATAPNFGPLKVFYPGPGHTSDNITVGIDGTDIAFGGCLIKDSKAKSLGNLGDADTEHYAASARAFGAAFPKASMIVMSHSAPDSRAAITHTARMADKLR
As to the kind of experiment: NDM-1 inhibition, fluorogenic cephalosporin (FC5) hydrolysis. The following applies: enethiols 6 assayed as sodium salts; 10 min incubation; read-out: IC50 NDM-1. The class given is biochemical. How it is done:
as §1, §2
Figure S4: IC50 curves for NDM-1 inhibition time courses. Residual activities were calculated from the
as §3

T1 sequence (P52699 19-246, looked up, species assumed): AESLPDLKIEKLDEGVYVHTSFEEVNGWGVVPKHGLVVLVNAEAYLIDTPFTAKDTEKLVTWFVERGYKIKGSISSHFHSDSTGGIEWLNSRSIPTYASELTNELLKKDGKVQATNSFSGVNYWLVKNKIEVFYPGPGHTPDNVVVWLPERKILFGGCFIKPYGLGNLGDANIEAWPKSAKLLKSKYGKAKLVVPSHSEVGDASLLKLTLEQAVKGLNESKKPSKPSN
Chain of SPM-1 (Q8G9Q0 entry or part of it): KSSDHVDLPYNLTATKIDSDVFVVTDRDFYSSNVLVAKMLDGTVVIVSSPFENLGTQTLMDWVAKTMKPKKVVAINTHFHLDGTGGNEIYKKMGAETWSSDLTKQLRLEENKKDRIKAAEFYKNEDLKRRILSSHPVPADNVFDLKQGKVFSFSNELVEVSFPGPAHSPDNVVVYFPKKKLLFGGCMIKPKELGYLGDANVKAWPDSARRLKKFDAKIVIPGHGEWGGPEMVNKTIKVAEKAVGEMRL

As to `O=C(O)/C(S)=C/c1ccc(Br)cc1` [Compound 6d], the IC50 – broadly, the concentration that gives 50% inhibition – is 2.3 µM in experiment [1], 3.3 µM in experiment [2], 9.9 µM in experiment [3] and 9.4 µM in experiment [4].
As to `CN1CCN(NC(=O)CN2C(=O)/C(=C/c3c(F)cccc3F)SC2=S)CC1` [Compound 5p], the IC50 in experiment [1] was 1.3 µM; in experiment [5] it was > 50 µM; in experiment [2], 1.3 µM; in experiment [3], 3 µM; in experiment [4], 41.7 µM.
In the case of `O=C(O)CN1C(=O)/C(=C/c2ccccc2Cl)SC1=S` [Compound 3g], the IC50 in experiment [1] was 25.1 ± 1.5 µM; in experiment [5], > 50 µM; in experiment [2] it was 43.2 ± 2.1 µM; in experiment [3], > 50 µM; in experiment [4] it was 6.7 ± 0.2 µM.
As for `O=C(O)/C(S)=C/c1ccccc1I` [Compound 6i], the IC50 is 1.4 µM in experiment [1], 5 µM in experiment [5], 0.7 µM in experiment [2] and 3.5 µM in experiment [4].
With `O=C(O)/C(S)=C/c1ccccc1Cl` [Compound 6g], the IC50 in experiment [1] was 0.1 µM; in experiment [5] it was 5.1 µM; in experiment [2] it was 0.4 µM; in experiment [3], 0.9 µM; in experiment [4], 0.4 µM.
Take `COc1ccc(/C=C(\S)C(=O)O)cc1` [Compound 6e]: the IC50 in experiment [1] is 0.6 µM; in experiment [5], 8.2 µM; in experiment [2] it was 0.8 µM; in experiment [3] it was 2.4 µM; in experiment [4], 0.4 µM.
The matching figures for `O=C(O)/C(S)=C/c1c(F)ccc(F)c1F` [Compound 6k]: 0.1 µM, 3.3 µM, 0.4 µM, 0.3 µM and 0.3 µM.
The matching figures for `O=C(O)CN1C(=O)/C(=C/c2c(F)cccc2F)SC1=S` [Compound 3p]: 32.1 ± 2.3 µM, > 50 µM, > 50 µM, > 50 µM and 6.8 ± 0.2 µM.
For `O=C(O)CN1C(=O)/C(=C/c2c(Cl)cccc2Cl)SC1=S` [Compound 3m], the IC50 in experiment [1] is 3.5 ± 0.4 µM; in experiment [5], > 50 µM; in experiment [2], 18.9 ± 0.8 µM; in experiment [3], 41.8 ± 2.3 µM; in experiment [4] it was 0.6 ± 0.1 µM.
For `O=C(O)CN1C(=O)/C(=C/c2c(F)ccc(F)c2F)SC1=S` [Compound 3k], in that order: 8.8 ± 0.3 µM, > 50 µM, 46.5 ± 0.7 µM, 27 ± 2.2 µM and 47.6 ± 0.4 µM.
With `O=C(O)CN1C(=O)/C(=C/c2cccc(Cl)c2Cl)SC1=S` [Compound 3n], the IC50 is 1 ± 0.1 µM in experiment [1]; > 50 µM in experiment [5]; 46.2 ± 1.4 µM in experiment [2]; 22.1 ± 1 µM in experiment [3]; 7.6 ± 0.3 µM in experiment [4].
The matching figures for `O=C(O)/C(S)=C/c1ccccc1Cc1ccc2ccccc2c1` [Compound 6s]: 0.06 ± 0.003 µM, 1.1 ± 1.7 µM, 0.08 ± 0.002 µM, 0.2 ± 0.03 µM and 0.1 ± 0.003 µM.
In the case of `CN1CCN(NC(=O)CN2C(=O)/C(=C/c3cc(Cl)ccc3Cl)SC2=S)CC1` [Compound 5o], the IC50 is 2.8 µM in experiment [1]; > 50 µM in experiment [5]; 7 µM in experiment [2]; 15.4 µM in experiment [3]; > 50 µM in experiment [4].
On to `O=C(O)CN1C(=O)/C(=C/c2ccccc2F)SC1=S` [Compound 3f], for which the IC50 was > 50 µM in experiment [1]; > 50 µM in experiment [5]; > 50 µM in experiment [2]; > 50 µM in experiment [3]; 17.6 ± 0.7 µM in experiment [4].
As to `O=C(O)CN1C(=O)/C(=C/c2ccccc2I)SC1=S` [Compound 3i], the IC50 in experiment [1] was 2 ± 0.5 µM; in experiment [5] it was > 50 µM; in experiment [2], 22.4 ± 0.4 µM; in experiment [3], 31.7 ± 1 µM; in experiment [4] it was 5.9 ± 0.1 µM.
For `O=C(O)CN1C(=O)/C(=C/c2ccc(F)cc2)SC1=S` [Compound 3c], in that order: > 50 µM, > 50 µM, > 50 µM, > 50 µM and 34.5 ± 0.6 µM.
For `CN1CCN(NC(=O)CN2C(=O)/C(=C/c3cccc(Cl)c3Cl)SC2=S)CC1` [Compound 5n], in that order: 0.3 µM, 32.8 µM, 0.6 µM, 1.1 µM and 39.5 µM.
For the compound `CN1CCN(NC(=O)CN2C(=O)/C(=C/c3ccccc3Cl)SC2=S)CC1` [Compound 5g], the IC50 in experiment [1] is 9.8 µM; in experiment [5], > 50 µM; in experiment [2], 7.6 µM; in experiment [3], > 50 µM; in experiment [4] it was 2 µM.
Regarding `O=C(O)CN1C(=O)/C(=C/c2ccc(Br)cc2)SC1=S` [Compound 3d], the IC50 is 39.7 ± 0.8 µM in experiment [1]; > 50 µM in experiment [5]; > 50 µM in experiment [2]; > 50 µM in experiment [3]; > 50 µM in experiment [4].
Turning to `O=C(O)/C(S)=C/c1csc2ccccc12` [Compound 6L], the IC50 in experiment [1] was 0.4 µM; in experiment [5], 11.1 µM; in experiment [2], 0.7 µM; in experiment [3] it was 3.1 µM; in experiment [4] it was 0.5 µM.
On to `O=C(O)/C(S)=C/c1c(F)cccc1Cl` [Compound 6j], for which the half-maximal inhibitory concentration (IC50) in experiment [1] was 0.0043 µM; in experiment [5], 4.4 µM; in experiment [2], 0.03 µM; in experiment [3] it was 0.06 µM; in experiment [4], 0.05 µM.
For `O=C(O)/C(S)=C/c1ccccc1F` [Compound 6f], in that order: 0.3 µM, 12.9 µM, 1.4 µM, 4 µM and 3.3 µM.
On to `O=C(O)CN1C(=O)/C(=C/c2csc3ccccc23)SC1=S` [Compound 3L], for which the IC50 is 13.9 ± 0.5 µM in experiment [1]; > 50 µM in experiment [5]; > 50 µM in experiment [2]; 21.7 ± 2.4 µM in experiment [3]; 36.9 ± 0.2 µM in experiment [4].
Take `O=C(O)CN1C(=O)/C(=C/c2c(Cl)ccc(Cl)c2Cl)SC1=S` [ML302A]: the IC50 in experiment [1] was 4.8 ± 0.3 µM; in experiment [5], > 50 µM; in experiment [2], 9.6 ± 0.4 µM; in experiment [3], 21.3 ± 0.5 µM; in experiment [4], 3.6 ± 0.7 µM.
The matching figures for `CN1CCN(NC(=O)CN2C(=O)/C(=C/c3ccc(F)cc3)SC2=S)CC1` [Compound 5c]: > 50 µM, > 50 µM, > 50 µM, > 50 µM and > 50 µM.
Consider `CN1CCN(NC(=O)CN2C(=O)/C(=C/c3csc4ccccc34)SC2=S)CC1` [Compound 5L], for which the IC50 is > 50 µM in experiment [1]; > 50 µM in experiment [5]; > 50 µM in experiment [2]; 7.2 µM in experiment [3]; 41.8 µM in experiment [4].
Consider `CN1CCN(NC(=O)CN2C(=O)/C(=C/c3ccc(Br)cc3)SC2=S)CC1` [Compound 5d], for which the IC50 was > 50 µM in experiment [1]; > 50 µM in experiment [5]; 28.7 µM in experiment [2]; > 50 µM in experiment [3]; 44 µM in experiment [4].
`CN1CCN(NC(=O)CN2C(=O)/C(=C/c3ccccc3Br)SC2=S)CC1` [Compound 5h]: the half-maximal inhibitory concentration (IC50) in experiment [1] was 8.1 µM; in experiment [5], > 50 µM; in experiment [2], 8.3 µM; in experiment [3], 14.6 µM; in experiment [4], 11.4 µM.
For `Cc1ccc(/C=C2\SC(=S)N(CC(=O)NN3CCN(C)CC3)C2=O)cc1` [Compound 5b], in that order: > 50 µM, 28 µM, > 50 µM, > 50 µM and > 50 µM.
The matching figures for `O=C(O)CN1C(=O)/C(=C/c2ccccc2)SC1=S` [Compound 3a]: > 50 µM, > 50 µM, > 50 µM, > 50 µM and 36.8 ± 0.3 µM.
